# Experimental data reported in patent US10703746B2, “Mutant IDH1 inhibitors useful for treating cancer” (THE UNITED STATES OF AMERICA, AS REPRESENTED BY THE …, priority 2014, dated 2020).
# Legend:
# [1] = molecular target: IDH1 R132H (Homo sapiens, UniProt O75874, R132H); test: IDH1 R132H enzymatic assay (NADPH depletion coupled to diaphorase/resazurin); assay type: biochemical; conditions: IDH1 R132H enzymatic inhibition, IC50 class
# [2] = molecular target: IDH1 R132C (Homo sapiens, UniProt O75874, R132C); test: IDH1 R132C enzymatic assay (NADPH depletion coupled to diaphorase/resazurin); assay type: biochemical; conditions: IDH1 R132C enzymatic inhibition, IC50 class
# Chain of IDH1 R132C (O75874 whole entry R132C): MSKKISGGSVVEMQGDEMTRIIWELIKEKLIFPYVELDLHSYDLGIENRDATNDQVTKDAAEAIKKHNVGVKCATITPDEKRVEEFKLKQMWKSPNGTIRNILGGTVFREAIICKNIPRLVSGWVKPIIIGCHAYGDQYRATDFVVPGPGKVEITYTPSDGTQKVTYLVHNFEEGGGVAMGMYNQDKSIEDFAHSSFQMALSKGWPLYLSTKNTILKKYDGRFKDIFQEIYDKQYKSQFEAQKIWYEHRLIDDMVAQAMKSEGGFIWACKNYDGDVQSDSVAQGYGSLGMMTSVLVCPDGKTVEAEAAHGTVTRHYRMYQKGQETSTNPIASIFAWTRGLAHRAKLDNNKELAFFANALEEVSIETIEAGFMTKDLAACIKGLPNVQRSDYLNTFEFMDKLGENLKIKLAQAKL
# Procedure, shortened: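 NADPH depletion, read via diaphorase/resazurin coupling, after adding substrate at 0.6 mM α-KG and 0.012 mM NADPH. Beforehand, 0.00032 mg/mL enzyme sat with compound 30 min at room temperature in pH 6.5 potassium phosphate buffer with MgCl2, glycerol and BSA.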
# Chain of IDH1 R132H (O75874 whole entry R132H): as the sequence (O75874 whole entry R132C) above, with C132H counted along it
SMILES,IC50 [1] [nM],IC50 [2] [nM]
CCc1cccc(CC)c1-n1c(C=C(C)C)c(C(=O)N2CCN[C@@H](C(=O)O)C2)cc(-c2nc(-c3ccc(C(F)(F)F)cc3)cs2)c1=O [Compound 641],< 300,< 300
CCc1cccc(OC)c1-n1c(C=C(C)C)c(C(=O)N2CCNCC2)cc(-c2nc(-c3ccc(Cl)cc3)cs2)c1=O [Compound 642],< 300,< 300
CCc1cccc(CC)c1-n1c(CC(C)C)c(C(=O)N2CCNCC2)cc(-c2coc(-c3ccc(Cl)cc3)n2)c1=O [Compound 643],300 to 1000,300 to 1000
COc1ccccc1-n1c(C=C(C)C)c(C(=O)N2CCNCC2)cc(-c2nc(-c3ccc(Cl)cc3)cs2)c1=O [Compound 644],< 300,300 to 1000
CN1CCN(c2ccc(C(F)(F)F)c(-n3c4c(cc(-c5nc(-c6ccc(Cl)cc6)cs5)c3=O)C(=O)CC(C)(C)C4)c2)CC1 [Compound 645],1000 to 5000,1000 to 5000
CCc1cccc(CC)c1-n1c(C=C(C)C)c(C(=O)N2CCNC(C)C2C)cc(-c2nc(-c3ccc(Cl)cc3)cs2)c1=O (stereo not drawn) [Compound 646],< 300,< 300
CCCC1CNCCN1C(=O)c1cc(-c2nc(-c3ccc(Cl)cc3)cs2)c(=O)n(-c2c(CC)cccc2CC)c1C=C(C)C (stereo not drawn) [Compound 648],300 to 1000,< 300
O=C1CCCc2c1cc(-c1nc(-c3ccc(Cl)cc3)cs1)c(=O)n2-c1ccc(CO)cc1 [Compound 649],> 20000,> 20000
CCc1cccc(CC)c1-n1c(C=C(C)C)c(C(=O)N2CCNC(=O)C2(C)C)cc(-c2nc(-c3ccc(Cl)cc3)cs2)c1=O [Compound 650],< 300,< 300
Cc1ccc(CO)cc1-n1c2c(cc(-c3nc(-c4ccc(Cl)cc4)cs3)c1=O)C(=O)CCC2 [Compound 651],1000 to 5000,1000 to 5000
COC(=O)c1ccsc1-n1c2c(cc(-c3nc(-c4ccc(Cl)cc4)cs3)c1=O)C(=O)CC(C)(C)C2 [Compound 652],300 to 1000,300 to 1000
CCc1cccc(CC)c1-n1c(C=C(C)C)c(C(=O)N2CCNC(C(N)=O)C2)cc(-c2ccn(-c3ccc(Cl)cc3)n2)c1=O (stereo not drawn) [Compound 653],< 300,< 300
CCc1cccc(CC)c1-n1c(CC(C)C)c(C(=O)N2CCNCC2)cc(-c2nc(-c3ccc(C(F)(F)F)cc3)cs2)c1=O [Compound 654],< 300,< 300
CCc1cccc(F)c1-n1c(C=C(C)C)c(C(=O)N2CCNCC2)cc(-c2nc(-c3ccc(Cl)cc3)cs2)c1=O [Compound 655],< 300,< 300
CCc1ccc(C)cc1-n1c(C=C(C)C)c(C(=O)N2CCNCC2)cc(-c2nc(-c3ccc(Cl)cc3)cs2)c1=O [Compound 656],< 300,< 300
CCc1cccc(CC)c1-n1c(C=C(C)C)c(C(=O)N2CCNC(C#N)C2)cc(-c2nc(-c3ccc(Cl)cc3)cs2)c1=O (stereo not drawn) [Compound 657],< 300,< 300
CCc1cccc(CC)c1-n1c(CC(C)C)c(C(=O)N2CCNCC2)cc(-n2cc(-c3ccc(Cl)cc3)cn2)c1=O [Compound 658],5000 to 20000,5000 to 20000

SMILES,IC50 [1] [nM],IC50 [2] [nM]
CCc1cccc(CC)c1-n1c(C=C(C)C)c(C(=O)N2CCC3(CCNC3)C2)cc(-c2nc(-c3ccc(Cl)cc3)cs2)c1=O (stereo not drawn) [Compound 659],300 to 1000,< 300
CCc1cccc(CC)c1-n1c(C=C(C)C)c(C(=O)N2C(C)CNCC2C(=O)O)cc(-c2nc(-c3ccc(Cl)cc3)cs2)c1=O (stereo not drawn) [Compound 660],< 300,< 300
COc1ncccc1-n1c2c(cc(-c3nc(-c4ccc(Cl)cc4)cs3)c1=O)C(=O)CC(C)(C)C2 [Compound 661],1000 to 5000,300 to 1000
CCc1cccc(CC)c1-n1c(CC(C)C)c(C(=O)N2CCNCC2)cc(-c2nc(-c3ccc(Cl)cc3)c(Cl)s2)c1=O [Compound 662],300 to 1000,< 300
COc1ccc(-n2c3c(cc(-c4nc(-c5ccc(Cl)cc5)cs4)c2=O)C(=O)CC(C)(C)C3)c(Cl)c1 [Compound 663],> 20000,1000 to 5000
CCc1cccc(CC)c1-n1c(C(C)(C)F)c(C(=O)N2CCNCC2)cc(-c2nc(-c3ccc(Cl)cc3)cs2)c1=O [Compound 664],300 to 1000,300 to 1000
CCOc1ccc(Cl)cc1-n1c(C=C(C)C)c(C(=O)N2CCNCC2)cc(-c2nc(-c3ccc(C(F)(F)F)cc3)cs2)c1=O [Compound 665],< 300,< 300
CCc1ccc(Cl)c(CC)c1-n1c(C=C(C)C)c(C(=O)N2CCNCC2)cc(-c2nc(-c3ccc(Cl)cc3)cs2)c1=O [Compound 666],< 300,< 300
COc1ncc(C)cc1-n1c(C=C(C)C)c(C(=O)N2CCNCC2)cc(-c2nc(-c3ccc(Cl)cc3)cs2)c1=O [Compound 667],< 300,< 300
COc1cccc(F)c1-n1c2c(cc(-c3nc(-c4ccc(Cl)cc4)cs3)c1=O)C(=O)CC(C)(C)C2 [Compound 668],1000 to 5000,1000 to 5000
COc1ccc(F)cc1-n1c2c(cc(-c3nc(-c4ccc(Cl)cc4)cs3)c1=O)C(=O)CC(C)(C)C2 [Compound 669],300 to 1000,300 to 1000
CCc1cccc(CC)c1-n1c(C2CCNCC2)c(C(=O)N2CCNCC2)cc(-c2nc(-c3ccc(Cl)cc3)cs2)c1=O [Compound 670],5000 to 20000,> 20000
CCOc1ccc(C)cc1-n1c(CC(C)C)c(C(=O)N2CCNCC2)cc(-c2nc(-c3ccc(C(F)F)cc3)cs2)c1=O [Compound 685],< 300,< 300
CCOc1ccc(F)cc1-n1c(CC(C)C)c(C(=O)N2CCNCC2)cc(-c2nc(-c3ccc(C(F)F)cc3)cs2)c1=O [Compound 686],300 to 1000,300 to 1000
CCOc1ccc(Cl)cc1-n1c(CC(C)C)c(C(=O)N2CCNCC2)cc(-c2nc(-c3ccc(C(F)F)cc3)cs2)c1=O [Compound 687],300 to 1000,300 to 1000
CCOc1ccc(OCC)c(-n2c3c(cc(-c4nc(-c5ccc(Cl)cc5)cs4)c2=O)C(=O)CC(C)(C)C3)c1 [Compound 828],300 to 1000,< 300
